From US20070123537A1, “Quinazoline derivatives for the treatment of herpesviral infections” (GPC Biotech AG, priority 2003, published 2007)
Entries after “also recorded” stand apart in the source; their conditions may differ. Like-named read-outs stand apart in the source and are kept apart here.

Legend:
clinical HCMV strain R2 = test: Plaque reduction assay, clinical isolate R2; assay type: cell-based, Human Cytomegalovirus (HCMV); conditions: Human betaherpesvirus 5; GCV- and CDV-resistant strain; read-out: IC 50, clinical strain R2
Experimental: (§1) HCMV reference strain AD 169 was used at an MOI (multiplicity of infection) of 0.004 for the infection of HFFs in 12 well plates as described in FIG. 2. After virus adsorption, the infected cell layers were overlayed with fresh medium containing the compound concentration as indicated in FIG. 2 and 0.3% agarose. After eight days postinfection, a staining of virus plaques was performed by the use of 1% crystal violet. Quantification was achieved by microscopic counting in quadruplicate (infection in duplicate, counting in duplicate).
(§2) Furthermore, clinical isolates of HCMV like R5, R3 and R2 were used for the infection of HFFs in a plaque reduction assay under the conditions described above. Parallel experiments on phenotype characterization , gene sequencing and UL 97-in-cell-activity assay (GCV phosphorylation) with cloned UL 97 were performed (Marschall, M., et al., J. Gen Virol. 2001, 82, 1439-1450).
(§3) Three clinical HCMV strains were investigated on replication in the presence of the selected quinazoline derivatives 3,4-Dichloro-phenyl)-quinazolin-4-yl-amine (compound 37), (3,4-Dichloro-phenyl)-(6-methyl-quinazolin-4-yl)-amine (compound 49) and (4-Bromo-phenyl)-quinazolin-4-yl-amine (compound 98).

clinical HCMV isolate R3 = test: Plaque reduction assay, clinical isolate R3; assay type: cell-based, Human Cytomegalovirus (HCMV); conditions: partially GCV resistant, CDV sensitive isolate; read-out: IC 50, clinical isolate R3
Experimental: as §1, §2, §3

clinical HCMV isolate R5 = test: Plaque reduction assay, clinical isolate R5; assay type: cell-based, Human Cytomegalovirus (HCMV); conditions: GCV sensitive and CDV sensitive isolate; read-out: IC 50, clinical isolate R5
Experimental: as §1, §2, §3

HCMV mutant AD169deIUL97 = test: Plaque reduction assay with UL97-deleted HCMV mutant; assay type: cell-based, Human Cytomegalovirus (HCMV); conditions: 50 nM NGIC-I, 10 μM compound 37 or 2 μM CDV
Experimental: FIG. 3: Replication of UL97-deleted HCMV in the presence of pUL97 inhibitors. Plaque assays were performed with HCMV mutant AD169deIUL97, carrying a deletion in the UL97 gene, in the presence of 0.1% DMSO (no inhib.), 50 nM NGIC-I, 10 μM compound 37 or 2 μM CDV as indicated.
To confirm the conclusion that pUL97 is the target for the antiviral activity of quinazolines, we performed an experiment with an UL97-deleted mutant of HCMV (AD169deIUL97) (Prichard, M. N., Gao, N., Jairath, S., Mulamba, G., Krosky, P., Coen, D. M., Parker, B. O., and Pari, G. S., J. Virol. […], 73, 5663).

viral kinase UL-97 = biological target: T1, viral kinase UL-97 (Human cytomegalovirus, UniProt P16788); test: UL97 Kinase-Assay on Immobilon Plate; assay type: biochemical
T1 construct: The UL-97 gene was cloned into a baculovirus vector in order to produce GST (glutathione S-transferase) fusion protein; GST; made in house; host or cells: Sf9 insect cells (baculovirus)
Experimental: UL97 Kinase-Assay on Immobilon Plate
The effect of quinazoline derivatives on the activity of the viral kinase UL-97 was tested. This kinase is derived from human cytomegalovirus (HCMV) (Marschall, M., et al., J. Gen Virol. 2001, 82,1439-1450.). The UL-97 gene was cloned into a baculovirus vector in order to produce GST (glutathione S-transferase) fusion protein. Insect cells (Sf9) were infected and GST-UL-97 purified via glutathione affinity columns according to standard procedures.
The UL-97 kinase reaction was performed as described (Marschall M. et aL, J. Gen. Virol. 2001, 82, 1439-1450). Briefly, 10 μl Assay buffer (3 μM ATP, 60 μg/ml myelin basic protein (MBP) as substrate), 1,0 μCi gamma[^33P]ATP and 10 μp, Basic buffer (20mM Tris-HCl 7.5, 500 μM MnCl2, 1 mM DTT (dithiothreitol)) were given to the test tube before adding various concentrations of the quinazoline derivatives. The reaction was started by adding 0.2 μl UL97 kinase, purified from infected Sf9-insect cells as described above. The total volume was adjusted with Basic buffer to a final volume of 30 μl. The reaction mix was incubated for 1 hr at 30° C. For negative control, 10 μl 0.1 M EDTA (ethylene diamine tetraacetate) was added to reaction mix before addition of UL-97 protein kinase. The reaction was stopped by addition of 10 μl 0.1 M EDTA.
Measuring Incorporation of Radioactivity
An Immobilon plate (Millipore) was rinsed with 50 μl methanol/well. Following addition of 100 μl 0.1 M EDTA, 20 μl of each kinase reaction mix was added to one well of the Immobilon plate. Each well was washed 4× with 250 μl 0.75% phosphoric acid and 1× with 50 μl methanol. After addition of 50 μl scintillation cocktail (Roth, Germany) per well incorporation of radioactivity was measured using a Betareader (Wallac) and enzymatic activity calculated.

HCMV AD-169 = test: HCMV infection of HFFs, reporter gene based antiviral assay; assay type: cell-based, Human Cytomegalovirus (HCMV); conditions: for HCMV AD 169 Replication [%] of control at 3 μM: 3 μM compound, HFFs, reporter gene activity after seven days; for IC50: replication of HCMV strain AD 169 in HFF cells, read-out: HCMV AD 169 IC 50
Experimental: To examine the effect of the quinazoline derivatives on HCMV replication, HCMV infections were performed in a cellular system.
Human foreskin fibroblasts (HFFs) were grown to subconfluency in 12 well plates and infected with 0.25 tissue culture infectious doses of HCMV AD-169 carrying a reporter gene (HCMV based antiviral assay). Quinazoline derivatives (stocks in DMSO (Dimethylsulfoxide)) were diluted in culture medium to the concentrations indicated and added to the cells immediately after virus adsorption. The success of infection (reporter gene expressing cells) and the lack of cytotoxicity of the compound (confluent cell layer) was monitored by microscopy. After seven days, cell layers were harvested, lysed and subjected to the automated fluorometry measurement of reporter gene activity. Each panel refers to a determination in quadruplicate (infection in duplicate, lysate preparation and measurement in duplicate).

UL 97 = biological target: T2, UL 97 (Human cytomegalovirus, UniProt P16788); test: UL 97 in-cell activity: protection of HEK 293 cells ectopically expressing UL 97 against toxic GCV; assay type: cell-based, human cytomegalovirus (HCMV); conditions: HEK 293 cells expressing UL 97
T2 construct: expressed in transfected cells; host or cells: HEK 293
Experimental: as §2
Furthermore, (IC50)-values of HCMV replication was measured for some compounds in a cellular system. Some quinazoline derivatives protect HEK 293 cells ectopially expressing UL 97 against toxic concentrations of GCV (10 and 20 μM respectively).

HEK 293 cells = test: Toxicity assay in HEK 293 cells; assay type: cell-based
Experimental: Toxicity Assay: Toxicity of the quinazoline derivatives was measured by incubating HEK 293 cells with 10 μM of each derivative. The corresponding amount of DMSO served as control.

[1] = system: HCMV reference strain AD 169; test: Plaque reduction assay, HCMV AD 169 in HFFs; assay type: cell-based, Human Cytomegalovirus (HCMV); conditions: Human betaherpesvirus 5, 192 h, read-out: IC50 in the plaque reduction assay
Experimental: as §1

[2] = 3 μM ATP, MBP substrate, read-out: UL 97 IC 50
[3] = Human betaherpesvirus 5, AD169, HFF
[4] = HCMV AD 169, HFFs, eight days postinfection

T1 sequence (P16788 whole entry, the tested form may be a part): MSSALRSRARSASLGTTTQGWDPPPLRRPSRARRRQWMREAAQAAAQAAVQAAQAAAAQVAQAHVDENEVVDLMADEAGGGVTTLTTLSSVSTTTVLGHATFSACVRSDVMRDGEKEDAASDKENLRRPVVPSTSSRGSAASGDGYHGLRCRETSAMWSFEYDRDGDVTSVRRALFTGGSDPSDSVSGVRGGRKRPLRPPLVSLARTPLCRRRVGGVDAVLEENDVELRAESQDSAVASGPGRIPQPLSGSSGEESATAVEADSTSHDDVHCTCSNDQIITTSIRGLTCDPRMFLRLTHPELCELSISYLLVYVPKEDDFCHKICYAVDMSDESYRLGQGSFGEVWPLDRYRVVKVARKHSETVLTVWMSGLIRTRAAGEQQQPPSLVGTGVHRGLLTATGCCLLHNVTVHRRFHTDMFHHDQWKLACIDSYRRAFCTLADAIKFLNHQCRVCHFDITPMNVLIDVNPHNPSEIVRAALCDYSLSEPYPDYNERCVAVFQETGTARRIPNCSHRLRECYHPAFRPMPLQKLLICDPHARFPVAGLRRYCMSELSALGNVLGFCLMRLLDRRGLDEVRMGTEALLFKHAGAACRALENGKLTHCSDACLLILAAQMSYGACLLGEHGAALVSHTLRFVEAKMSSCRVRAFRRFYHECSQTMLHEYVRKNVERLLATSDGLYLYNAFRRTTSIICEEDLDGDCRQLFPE
T2 sequence (P16788 whole entry): as the sequence (P16788 whole entry, the tested form may be a part) above

| SMILES | inhibition of UL 97-kinase activity (in words) (viral kinase UL-97) | IC50 (viral kinase UL-97; [2]) | HCMV AD 169 Replication [%] of control at 3 μM (HCMV AD-169) | IC50 (HCMV AD-169; [3]) | further results |
| --- | --- | --- | --- | --- | --- |
| Nc1ccn(C[C@@H](CO)OCP(=O)(O)O)c(=O)n1 [CDV, Cidofovir] |  |  |  |  | IC50 (clinical HCMV strain R2): 4200 nM; IC50 (clinical HCMV isolate R3): 350 nM; IC50 (clinical HCMV isolate R5): 700 nM; effect on replication of AD169deIUL97 (plaque assay) (HCMV mutant AD169deIUL97): complete inhibition; also recorded: efficiently blocked |
| COc1cc2ncnc(Nc3ccc(Br)cc3)c2cc1OC [Compound 31, (4-Bromo-phenyl)-(6,7-dimethoxy-quinazolin-4-yl)-amine] | potent inhibitors | 1200 nM | 60% |  |  |
| Clc1ccc(Nc2ncnc3ccccc23)cc1Cl [Compound 37, (3,4-Dichloro-phenyl)-quinazolin-4-yl-amine] | potent inhibitors | 40 nM | 45% | 2000 to 3000 nM | IC50 (HCMV AD-169): 3000 nM; UL 97 GCV [%] growth at conc. [μM] (UL 97; at 10 μM): 80%; UL 97 GCV [%] growth at conc. [μM] (UL 97; at 20 μM): 50%; Viability [%] at 10 μM (HEK 293 cells): 77%; IC50 [1, 4]: 2500 to 5000 nM; effect on replication of AD169deIUL97 (plaque assay) (HCMV mutant AD169deIUL97): only little or no effect; effect on replication of AD169deIUL97 (plaque assay) (HCMV mutant AD169deIUL97; listed as compound 37): not |
| Cc1ccc2ncnc(Nc3ccc(Br)cc3)c2c1 [Compound 43, (4-Bromo-phenyl)-(6-methyl-quinazolin-4-yl)-amine] | potent inhibitors | > 100 nM | 20% |  |  |
| Cc1ccc2ncnc(Nc3ccc(Cl)c(Cl)c3)c2c1 [Compound 49, (3,4-Dichloro-phenyl)-(6-methyl-quinazolin-4-yl)-amine] | potent inhibitors | 20 nM | 20% | 2000 to 3000 nM | IC50 (HCMV AD-169): 2500 nM; UL 97 GCV [%] growth at conc. [μM] (UL 97; at 10 μM): 80% at 10 μM; Viability [%] at 10 μM (HEK 293 cells): 78%; IC50 [1]: 2500 to 5000 nM |
| Fc1ccc2c(Nc3cccc(Cl)c3)ncnc2c1 [Compound 70, (3-Chloro-phenyl)-(7-fluoro-quinazolin-4-yl)-amine] | potent inhibitors |  |  |  |  |
| Ic1ccc(Nc2ncnc3ccccc23)cc1 [Compound 72, (4-lodo-phenyl)-quinazolin-4-yl-amine] | potent inhibitors | 200 nM |  |  |  |
| c1ccc(Nc2ncnc3ccccc23)cc1 [Compound 84, Phenyl-quinazolin-4-yl-amine] |  |  |  |  | IC50 (viral kinase UL-97): 300 nM |
| Clc1cccc(Nc2ncnc3ccccc23)c1 [Compound 87, (3-Chloro-phenyl)-quinazolin-4-yl-amine] | potent inhibitors | 700 nM |  |  |  |
| Fc1ccc(Nc2ncnc3ccccc23)cc1 [Compound 88, (4-Fluoro-phenyl)-quinazolin-4-yl-amine] | potent inhibitors | 200 nM |  |  |  |
| CCc1cccc(Nc2ncnc3ccc(C)cc23)c1 [Compound 89, (3-Ethyl-phenyl)-(6-methyl-quinazolin-4-yl)-amine] | potent inhibitors |  |  |  |  |
| Brc1ccc(Nc2ncnc3ccccc23)cc1 [Compound 98, (4-Bromo-phenyl)-quinazolin-4-yl-amine] | potent inhibitors | 170 nM | 30% | 2000 to 3000 nM | IC50 (HCMV AD-169): 2000 nM; UL 97 GCV [%] growth at conc. [μM] (UL 97; at 10 μM): 80%; UL 97 GCV [%] growth at conc. [μM] (UL 97; at 20 μM): 60%; Viability [%] at 10 μM (HEK 293 cells): 75%; IC50 [1, 4]: 2500 to 5000 nM |
| Nc1nc(O)c2ncn(COC(CO)CO)c2n1 [ganciclovir] |  |  |  | 3000 to 4000 nM | IC50 [1, 4]: 4000 to 6000 nM; IC50 (clinical HCMV strain R2): 34000 nM; IC50 (clinical HCMV isolate R3): 20000 nM; IC50 (clinical HCMV isolate R5): 4100 nM |
